# Data as given in patent US12568969B2, “Pyridine compounds for controlling invertebrate pests” (FMC Corporation, priority 2020, dated 2026).
# Experiments:
# Type in all cases: in vivo
# [1] = system: corn planthopper (Peregrinus maidis (Ashmead)); test: whole plant or invertebrate; settings: Peregrinus maidis, 144 h, 6 days; for mortality at 10 ppm: sprayed at 10 ppm; for mortality at 50 ppm: sprayed at 50 ppm; for mortality at 250 ppm: sprayed at 250 ppm
# Experimental: (§1) Test compounds were formulated using a solution containing 10% acetone, […] and 300 ppm Activator 909 non-ionic surfactant (Loveland Products, Loveland, Colorado, USA). The formulated compounds were applied in 1 mL of liquid through an atomizer nozzle positioned 1.27 cm (0.5 inches) above the top of each test unit. Test compounds were sprayed at the rates indicated, and each test was replicated three times.
# For evaluating control of corn planthopper (Peregrinus maidis (Ashmead)) through contact and/or systemic means, the test unit consisted of a small open container with a 3-4-day-old corn (maize) plant inside. White sand was added to the top of the soil prior to application of the test compound.
# Test compounds were formulated and sprayed at 250 and/or 50 ppm and/or 10 ppm. After spraying of the formulated test compound, the test units were allowed to dry for 1 h before they were post-infested with ˜15-20 nymphs (18-to-21-day-old). A black, screened cap was placed on the top of each test unit, and the test units were held for 6 days in a growth chamber at 22-24° C. and 50-70% relative humidity. Each test unit was then visually assessed for insect mortality.
# [2] = system: cotton melon aphid (Aphis gossypii (Glover)); test: whole plant or invertebrate; settings: Aphis gossypii, 144 h, 6 days; for mortality at 50 ppm: sprayed at 50 ppm; for mortality at 250 ppm: sprayed at 250 ppm
# Experimental: as §1
# […] This was pre-infested with 30-40 insects on a piece of leaf according to the cut-leaf method, and the soil of the test unit was covered with a layer of sand.
# Test compounds were formulated and sprayed at 250 and/or 50 ppm. After spraying, the test units were maintained in a growth chamber for 6 days at 19° C. and 70% relative humidity. Each test unit was then visually assessed for insect mortality.
# [3] = system: green peach aphid (Myzus persicae (Sulzer)); test: Test D: control of green peach aphid on radish plant, spray; settings: Myzus persicae, 144 h, 6 days; for mortality at 50 ppm: sprayed at 50 ppm; for mortality at 250 ppm: sprayed at 250 ppm
# Experimental: as §1
# For evaluating control of green peach aphid (Myzus persicae (Sulzer)) through contact and/or systemic means, the test unit consisted of a small open container with a 12-15-day-old radish plant inside. This was pre-infested by placing on a leaf of the test plant 30-40 aphids on a piece of leaf excised from a culture plant (cut-leaf method). The aphids moved onto the test plant as the leaf piece desiccated. After pre-infestation, the soil of the test unit was covered with a layer of sand.
# […] After spraying of the formulated test compound, each test unit was allowed to dry for 1 hour and then a black, screened cap was placed on top. The test units were held for 6 days in a growth chamber at 19-21° C. and 50-70% relative humidity. Each test unit was then visually assessed for insect mortality.
# [4] = system: diamondback moth (Plutella xylostella (L.)); test: Test A: control of diamondback moth on mustard plant, spray; settings: sprayed at 250 ppm; assessed after 6 days
# Experimental: as §1
# For evaluating control of diamondback moth (Plutella xylostella (L.)) the test unit consisted of a small open container with a 12-14-day-old mustard plant inside. This was pre-infested with ˜50 neonate larvae that were dispensed into the test unit via corn cob grits using an inoculator. The larvae moved onto the test plant after being dispensed into the test unit.
# Test compounds were formulated and sprayed at 250 ppm. After spraying of the formulated test compound, each test unit was allowed to dry for 1 hour and then a black, screened cap was placed on top. The test units were held for 6 days in a growth chamber at 25° C. and 70% relative humidity. Plant feeding damage was then visually assessed based on foliage consumed, and larvae were assessed for mortality.
# [5] = system: sweetpotato whitefly (Bemisia tabaci (Gennadius)); test: Test F: control of sweetpotato whitefly on cotton plant, spray; settings: 312 h, 13 days; for mortality at 250 ppm: sprayed at 250 ppm; for mortality at 50 ppm: sprayed at 50 ppm
# Experimental: as §1
# For evaluating control of the sweetpotato whitefly (Bemisia tabaci (Gennadius)) through contact and/or systemic means, the test unit consisted of a small open container with a 12-14-day-old cotton plant inside. Prior to the spray application, both cotyledons were removed from the plant, leaving one true leaf for the assay. Adult whiteflies were allowed to lay eggs on the plant and then were removed from the test unit. Cotton plants infested with at least 15 eggs were submitted to the test for spraying.
# Test compounds were formulated and sprayed at 250 and/or 50 ppm. After spraying, the test units were allowed to dry for 1 hour. The cylinders were then removed, and the units were taken to a growth chamber and held for 13 days at 28° C. and 50-70% relative humidity. Each test unit was then visually assessed for insect mortality.
SMILES,mortality at 10 ppm [1] [%],mortality at 50 ppm [1] [%],mortality at 250 ppm [1] [%],mortality at 50 ppm [2] [%],mortality at 250 ppm [2] [%],mortality at 50 ppm [3] [%],mortality at 250 ppm [3] [%],control efficacy (40% or less feeding damage and/or 100% mortality) [4],mortality at 250 ppm [5] [%],mortality at 50 ppm [5] [%]
"COC(c1ccc(SC(F)(F)F)cc1)c1c(Cl)cncc1-n1nccn1 (single isomer, unassigned) [Compound 130]",≥ 80,≥ 80,≥ 80,≥ 80,≥ 80,≥ 80,≥ 80,very good to excellent levels of control efficacy,–,–
Fc1cncc(-n2nccn2)c1C(F)c1ccc(SC(F)(F)F)cc1 (stereo not shown) [Compound 3],–,≥ 80,≥ 80,≥ 80,≥ 80,≥ 80,≥ 80,very good to excellent levels of control efficacy,≥ 70,–
Fc1cncc(-n2cncn2)c1C(F)c1ccc(C(F)(F)F)cc1 (stereo not shown) [Compound 18],–,≥ 80,≥ 80,–,–,≥ 80,≥ 80,very good to excellent levels of control efficacy,–,–
Fc1cncc(-n2nccn2)c1C(F)c1ccc(C(F)(F)F)cc1 (stereo not shown) [Compound 20],–,≥ 80,≥ 80,≥ 80,≥ 80,≥ 80,≥ 80,very good to excellent levels of control efficacy,–,–
Fc1cncc(-c2ccco2)c1C(F)c1ccc(OC(F)(F)F)cc1 (stereo not shown) [Compound 22],≥ 80,≥ 80,≥ 80,≥ 80,≥ 80,–,≥ 80,very good to excellent levels of control efficacy,–,–
Fc1cncc(-c2ccoc2)c1C(F)c1ccc(OC(F)(F)F)cc1 (stereo not shown) [Compound 23],–,≥ 80,≥ 80,–,–,–,≥ 80,very good to excellent levels of control efficacy,–,–
Fc1cncc(-c2nnco2)c1C(F)c1ccc(OC(F)(F)F)cc1 (stereo not shown) [Compound 30],≥ 80,≥ 80,≥ 80,–,–,–,≥ 80,very good to excellent levels of control efficacy,–,–
Fc1cncc(-c2cnco2)c1C(F)c1ccc(OC(F)(F)F)cc1 (stereo not shown) [Compound 34],–,≥ 80,≥ 80,≥ 80,≥ 80,≥ 80,≥ 80,very good to excellent levels of control efficacy,–,–
Fc1cncc(-c2cccs2)c1C(F)c1ccc(OC(F)(F)F)cc1 (stereo not shown) [Compound 45],≥ 80,≥ 80,–,≥ 80,≥ 80,–,–,very good to excellent levels of control efficacy,–,–
N#Cc1cncc(-n2nccn2)c1C(F)c1ccc(OC(F)(F)F)cc1 (stereo not shown) [Compound 48],≥ 80,≥ 80,–,–,–,≥ 80,≥ 80,very good to excellent levels of control efficacy,–,–
FC(c1ccc(OC(F)(F)F)cc1)c1c(Cl)cncc1-c1ncco1 (stereo not shown) [Compound 51],≥ 80,≥ 80,–,≥ 80,≥ 80,–,–,very good to excellent levels of control efficacy,–,–
Fc1cncc(-c2ncco2)c1C(F)c1ccc(SC(F)(F)F)cc1 (stereo not shown) [Compound 78],≥ 80,≥ 80,≥ 80,≥ 80,≥ 80,≥ 80,≥ 80,very good to excellent levels of control efficacy,≥ 70,≥ 70
FC(c1ccc(SC(F)(F)F)cc1)c1c(Cl)cncc1-n1nccn1 (stereo not shown) [Compound 89],≥ 80,≥ 80,≥ 80,≥ 80,≥ 80,≥ 80,≥ 80,very good to excellent levels of control efficacy,≥ 70,≥ 70
Fc1cncc(-n2nccn2)c1C(F)c1ccc(Br)cc1 (stereo not shown) [Compound 92],≥ 80,≥ 80,≥ 80,≥ 80,≥ 80,–,–,very good to excellent levels of control efficacy,≥ 70,≥ 70
FC(c1ccc(SC(F)(F)F)cc1)c1c(Cl)cncc1-c1cnco1 (stereo not shown) [Compound 105],–,≥ 80,≥ 80,≥ 80,≥ 80,–,–,very good to excellent levels of control efficacy,–,–
COC(c1ccc(SC(F)F)cc1)c1c(F)cncc1-n1nccn1 (stereo not shown) [Compound 118],–,–,–,≥ 80,≥ 80,≥ 80,≥ 80,very good to excellent levels of control efficacy,≥ 70,≥ 70
COC(c1ccc(SC(F)(F)F)cc1)c1c(I)cncc1-n1nccn1 (stereo not shown) [Compound 120],–,≥ 80,≥ 80,–,–,–,–,very good to excellent levels of control efficacy,≥ 70,≥ 70
COC(c1ccc(SC(F)(F)F)cc1)c1c(F)cncc1-n1nccn1 (stereo not shown) [Compound 123],≥ 80,≥ 80,≥ 80,≥ 80,≥ 80,≥ 80,≥ 80,very good to excellent levels of control efficacy,≥ 70,≥ 70
"CO[C@H](c1ccc(OC(F)(F)F)cc1)c1c(F)cncc1-n1nccn1 [Compound 125, 3-fluoro-4-[(R)-methoxy-[4-(trifluoromethoxy)phenyl]methyl]-5-(triazol-2 yl)pyridine]",≥ 80,≥ 80,≥ 80,≥ 80,≥ 80,≥ 80,≥ 80,very good to excellent levels of control efficacy,≥ 70,≥ 70
COC(c1ccc(SC(F)(F)F)cc1)c1c(Br)cncc1-n1nccn1 (stereo not shown) [Compound 133],–,–,–,≥ 80,≥ 80,–,–,very good to excellent levels of control efficacy,≥ 70,≥ 70
